Counter-ions that a name gives are not always drawn.
Key:
[1] = tested on: SD rats; assay: Von Frey test in rat incisional pain model (Brennan method); assay type: in vivo; settings: for Von Frey Hairs (g) 1 h: paw withdrawal threshold 1 h after surgery; for Von Frey Hairs (g) 1 h / Von Frey Hairs (g) 3 h / Von Frey Hairs (g) 6 h / Von Frey Hairs (g) 12 h / Von Frey Hairs (g) 24 h: injected in the incision, 10 mg/kg (counted by lidocaine) or 4 mg/kg (counted by bupivacaine); for Von Frey Hairs (g) 1 h / Von Frey Hairs (g) 3 h / Von Frey Hairs (g) 6 h / Von Frey Hairs (g) 12 h / Von Frey Hairs (g) 24 h / Von Frey Hairs (g) Basline: x±s; for Von Frey Hairs (g) 3 h: paw withdrawal threshold 3 h after surgery; for Von Frey Hairs (g) 6 h: paw withdrawal threshold 6 h after surgery; for Von Frey Hairs (g) 12 h: paw withdrawal threshold 12 h after surgery; for Von Frey Hairs (g) 24 h: paw withdrawal threshold 24 h after surgery; for Von Frey Hairs (g) Basline: paw withdrawal threshold before surgery and administration, 6 rats per group
[2] = single dose injected; postoperative pain; background statement; cited from earlier work
[3] = background statement; cited from earlier work

| SMILES | Von Frey Hairs (g) 1 h [1] [g] | Von Frey Hairs (g) 3 h [1] [g] | Von Frey Hairs (g) 6 h [1] [g] | Von Frey Hairs (g) 12 h [1] [g] | Von Frey Hairs (g) 24 h [1] [g] | Von Frey Hairs (g) Basline [1] [g] | duration of the drug (local anesthesia) [3] [h] | other results |
| --- | --- | --- | --- | --- | --- | --- | --- | --- |
| CCN(CC)CC(=O)Nc1c(C)cccc1C [Lidocaine hydrochloride] | 6.6 ± 0.5 | 6.1 ± 0.4 | 4.0 ± 0.6 | 1.5 ± 0.4 | 1.4 ± 0.2 | 7.5 ± 0.8 |  |  |
| CCCCN1CCCCC1C(=O)Nc1c(C)cccc1C (stereo not drawn) [Bupivacaine] |  |  |  |  |  |  |  | duration of analgesic effect [2]: less than 7 h |
| CCCCN1CCCCC1C(=O)Nc1c(C)cccc1C (stereo not drawn) [Bupivacaine hydrochloride] | 4.3 ± 0.7 | 6.6 ± 0.4 | 5.3 ± 0.5 | 3.4 ± 0.9 | 1.7 ± 0.4 | 7.3 ± 0.7 |  | duration of analgesia (in words) ([1]; discussion of Table 1): relatively long duration; onset of analgesic effect (in words) ([1]; discussion of Table 1): takes effect more slowly than lidocaine hydrochloride |
| CCN(CC)CC(=O)Nc1c(C)cccc1C [lidocaine] |  |  |  |  |  |  | 1 to 2 |  |
| CCCCN1CCCC[C@H]1C(=O)Nc1c(C)cccc1C [L-bupivacaine] |  |  |  |  |  |  | 5 to 7 |  |
| CCCN1CCCC[C@H]1C(=O)Nc1c(C)cccc1C [ropivacaine] |  |  |  |  |  |  | 4.4 |  |

Source: patent US10525143B2, “Conjugate of polyethylene glycol and anesthetic, and preparation method thereof” (JenKem Technology Co., Ltd. (Tianjin), priority 2015, dated 2020)
